Source: patent publication US8916557B2, “Substituted 4-Aryl-N-phenyl-1,3,5-triazin-2-amines” (Bayer Intellectual Property GmbH, priority 2011, dated 2014)

How the values were obtained:
CDK9/CycT1 = target: T1, CDK9/CycT1 (Homo sapiens, UniProt P50750); assay: CDK9/CycT1 kinase assay (TR-FRET); format: biochemical; settings: Method 1, 10 μM ATP
T1 construct: Recombinant full-length His-tagged human CDK9 and CycT1; His; purchased Invitrogen PV4131; host or cells: insect cells
From the text: 1. CDK9/CycT1 Kinase Assay:
CDK9/CycT1-inhibitory activity of compounds of the present invention was quantified employing the CDK9/CycT1 TR-FRET assay as described in the following paragraphs:
Recombinant full-length His-tagged human CDK9 and CycT1, expressed in insect cells and purified by Ni-NTA affinity chromatography, were purchased from Invitrogen (Cat. No PV4131). As substrate for the kinase reaction biotinylated peptide biotin-Ttds-[…] (C-terminus in amid form) was used which can be purchased e.g. form the company JERINI Peptide Technologies (Berlin, Germany). For the assay 50 nl of a 100fold concentrated solution of the test compound in DMSO was pipetted into a black low volume 384well microtiter plate (Greiner Bio-One, Frickenhausen, Germany), 2 μl of a solution of CDK9/CycT1 in aqueous assay buffer [50 mM Tris/HCl pH 8.0, 10 mM MgCl2, 1.0 mM dithiothreitol, 0.1 mM sodium ortho-vanadate, 0.01% (v/v) Nonidet-P40 (Sigma)] were added and the mixture was incubated for 15 min at 22° C. to allow pre-binding of the test compounds to the enzyme before the start of the kinase reaction. Then the kinase reaction was started by the addition of 3 μl of a solution of adenosine-tri-phosphate (ATP, 16.7 μM=>final conc. in the 5 μl assay volume is 10 μM) and substrate (1.67 μM=>final conc. in the 5 μl assay volume is 1 μM) in assay buffer and the resulting mixture was incubated for a reaction time of 25 min at 22° C. The concentration of CDK9/CycT1 was adjusted depending of the activity of the enzyme lot and was chosen appropriate to have the assay in the linear range, typical concentrations were in the range of 1 μg/ml. The reaction was stopped by the addition of 5 μl of a solution of TR-FRET detection reagents (0.2 μM streptavidine-XL665 [Cisbio Bioassays, Codolet, France] and 1 nM anti-RB(pSer807/pSer811)-antibody from BD Pharmingen [#558389] and 1.2 nM LANCE EU-W1024 labeled anti-mouse IgG antibody [Perkin-Elmer, product no. AD0077]) in an aqueous EDTA-solution (100 mM EDTA, 0.2% (w/v) bovine serum albumin in 100 mM HEPES/NaOH pH 7.0).
(§1) The resulting mixture was incubated 1 h at 22° C. to allow the formation of complex between the phosphorylated biotinylated peptide and the detection reagents. Subsequently the amount of phosphorylated substrate was evaluated by measurement of the resonance energy transfer from the Eu-chelate to the streptavidine-XL. Therefore, the fluorescence emissions at 620 nm and 665 nm after excitation at 350 nm was measured in a HTRF reader, e.g. a Rubystar (BMG Labtechnologies, Offenburg, Germany) or a Viewlux (Perkin-Elmer). The ratio of the emissions at 665 nm and at 622 nm was taken as the measure for the amount of phosphorylated substrate.

CDK2/CycE = target: T2, CDK2/CycE (Homo sapiens, UniProt P24941); assay: CDK2/CycE kinase assay (TR-FRET); format: biochemical; settings: Method 2, 10 μM ATP
T2 construct: GST; purchased ProQinase GmbH (Freiburg, Germany); host or cells: insect cells (Sf9)
From the text: 2. CDK2/CycE Kinase Assay:
CDK2/CycE-inhibitory activity of compounds of the present invention was quantified employing the CDK2/CycE TR-FRET assay as described in the following paragraphs:
Recombinant fusion proteins of GST and human CDK2 and of GST and human CycE, expressed in insect cells (Sf9) and purified by Glutathion-Sepharose affinity chromatography, were purchased from ProQinase GmbH (Freiburg, Germany). As substrate for the kinase reaction biotinylated peptide biotin-Ttds-[…] (C-terminus in amid form) was used which can be purchased e.g. form the company JERINI Peptide Technologies (Berlin, Germany).
For the assay 50 nl of a 100fold concentrated solution of the test compound in DMSO was pipetted into a black low volume 384well microtiter plate (Greiner Bio-One, Frickenhausen, Germany), 2 μl of a solution of CDK2/CycE in aqueous assay buffer [50 mM Tris/HCl pH 8.0, 10 mM MgCl2, 1.0 mM dithiothreitol, 0.1 mM sodium ortho-vanadate, 0.01% (v/v) Nonidet-P40 (Sigma)] were added and the mixture was incubated for […] at 22° C. to allow pre-binding of the test compounds to the enzyme before the start of the kinase reaction. Then the kinase reaction was started by the addition of 3 μl of a solution of adenosine-tri-phosphate (ATP, 16.7 μM=>final conc. in the 5 it assay volume is 10 μM) and substrate (1.25 μM=>final conc. in the 5 it assay volume is 0.75 μM) in assay buffer and the resulting mixture was incubated for a reaction time of […] at 22° C. The concentration of CDK2/CycE was adjusted depending of the activity of the enzyme lot and was chosen appropriate to have the assay in the linear range, typical concentrations were in the range of 130 ng/ml. The reaction was stopped by the addition of 5 it of a solution of TR-FRET detection reagents (0.2 μM streptavidine-XL665 [Cisbio Bioassays, Codolet, France] and 1 nM anti-RB(pSer807/pSer811)-antibody from BD Pharmingen [#558389] and 1.2 nM LANCE EU-W1024 labeled anti-mouse IgG antibody [Perkin-Elmer, product no. AD0077]) in an aqueous EDTA-solution (100 mM EDTA, 0.2% (w/v) bovine serum albumin in 100 mM HEPES/NaOH pH 7.0).
as §1, with “TR-FRET” for “HTRF”

[1] = tested on: HeLa human cervical tumour cells; assay: Proliferation assay (crystal violet), HeLa; format: cell-based; settings: read-out: Inhibition of HeLa cell proliferation

T1 sequence (P50750 whole entry): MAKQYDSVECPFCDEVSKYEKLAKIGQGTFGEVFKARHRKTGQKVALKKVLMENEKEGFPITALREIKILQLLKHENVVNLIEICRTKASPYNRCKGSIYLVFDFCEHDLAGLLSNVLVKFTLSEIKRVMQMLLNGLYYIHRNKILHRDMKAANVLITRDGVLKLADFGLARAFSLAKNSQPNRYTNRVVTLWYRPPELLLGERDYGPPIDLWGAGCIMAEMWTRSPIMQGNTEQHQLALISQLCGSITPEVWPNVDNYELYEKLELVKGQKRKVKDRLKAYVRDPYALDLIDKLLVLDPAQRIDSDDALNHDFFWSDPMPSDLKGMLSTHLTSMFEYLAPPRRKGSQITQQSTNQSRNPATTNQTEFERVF
T1 sequence (O60563 whole entry partner): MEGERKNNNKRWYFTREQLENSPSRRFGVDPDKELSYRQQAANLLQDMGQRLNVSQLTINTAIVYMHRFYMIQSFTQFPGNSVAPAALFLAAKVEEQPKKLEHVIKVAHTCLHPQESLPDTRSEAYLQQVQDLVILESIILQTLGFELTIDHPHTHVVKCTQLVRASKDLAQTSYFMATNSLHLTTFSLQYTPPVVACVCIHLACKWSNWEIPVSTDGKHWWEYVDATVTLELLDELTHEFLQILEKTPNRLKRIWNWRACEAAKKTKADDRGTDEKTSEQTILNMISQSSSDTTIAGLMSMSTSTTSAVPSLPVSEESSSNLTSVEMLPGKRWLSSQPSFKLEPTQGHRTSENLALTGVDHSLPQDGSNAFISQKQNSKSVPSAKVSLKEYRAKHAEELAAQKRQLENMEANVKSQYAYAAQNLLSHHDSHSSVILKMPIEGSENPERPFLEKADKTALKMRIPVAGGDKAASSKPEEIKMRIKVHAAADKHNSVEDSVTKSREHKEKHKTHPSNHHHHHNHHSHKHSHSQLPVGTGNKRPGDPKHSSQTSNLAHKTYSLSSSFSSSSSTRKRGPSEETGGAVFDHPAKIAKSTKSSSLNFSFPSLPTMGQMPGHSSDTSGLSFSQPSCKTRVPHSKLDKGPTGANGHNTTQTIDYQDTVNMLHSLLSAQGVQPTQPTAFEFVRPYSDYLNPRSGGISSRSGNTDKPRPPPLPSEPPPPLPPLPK

IC50 (CDK9/CycT1) [nM]	IC50 (CDK2/CycE) [nM]	IC50 [1] [nM]	SMILES
29	1000	900	CS(=O)(=O)Cc1cccc(Nc2ncnc(-c3ccc(F)cc3OC3CC3)n2)c1 [Example 41, 4-[2-(Cyclopropyloxy)-4-fluorophenyl]-N-{3-[(methylsulfonyl)methyl]phenyl}-1,3,5-triazin-2-amine]
7	≥ 20000	1160	CS(=O)(=O)Cc1cccc(Nc2ncnc(-c3ccc(F)cc3OCc3ccc(F)c(F)c3F)n2)c1 [Example 72, 4-{4-Fluoro-2-[(2,3,4-trifluorobenzyl)oxy]-phenyl}-N-{3-[(methylsulfonyl)methyl]-phenyl}-1,3,5-triazin-2-amine]
7	680	1000	COc1cc(F)ccc1-c1ncnc(Nc2cccc(CS(=O)(=O)C(C)C)c2)n1 [Example 24, 4-(4-Fluoro-2-methoxyphenyl)-N-{3-[(propan-2-ylsulfonyl)methyl]phenyl}-1,3,5-triazin-2-amine]
22	1200	1100	CS(=O)(=O)Cc1cccc(Nc2ncnc(-c3ccc(F)cc3OCC(F)F)n2)c1 [Example 60, 4-[2-(2,2-Difluoroethoxy)-4-fluorophenyl]-N-{3-[(methylsulfonyl)methyl]phenyl}-1,3,5-triazin-2-amine]
12	860	1100	CCCOc1cc(F)ccc1-c1ncnc(Nc2cccc(CS(C)(=O)=O)c2)n1 [Example 43, 4-(4-Fluoro-2-propoxyphenyl)-N-{3-[(methylsulfonyl)-methyl]phenyl}-1,3,5-triazin-2-amine]
12	2200	1170	CS(=O)(=O)Cc1cccc(Nc2ncnc(-c3ccc(F)cc3OCc3ccccc3F)n2)c1 [Example 71, 4-{4-Fluoro-2-[(2-fluorobenzyl)oxy]phenyl}-N-{3-[(methylsulfonyl)-methyl]phenyl}-1,3,5-triazin-2-amine]
10	800	1200	CC(C)S(=O)(=O)Cc1cccc(Nc2ncnc(-c3ccccc3OCc3cccc(Cl)c3)n2)c1 [Example 34, 4-{2-[(3-Chlorobenzyl)oxy]phenyl}-N-{3-[(propan-2-ylsulfonyl)methyl]phenyl}-1,3,5-triazin-2-amine]
6	320	840	CC(C)S(=O)(=O)Cc1cccc(Nc2ncnc(-c3cc(F)ccc3OCc3cccc(F)c3)n2)c1 [Example 38, 4-{5-Fluoro-2-[(3-fluorobenzyl)oxy]phenyl}-N-{3-[(prop-2-ylsulfonyl)methyl]phenyl}-1,3,5-triazin-2-amine]
3	440	920	C[C@@H](Oc1cc(F)ccc1-c1ncnc(Nc2cccc(CS(C)(=O)=O)c2)n1)c1ccccc1 [Example 79, 4-{4-Fluoro-2-[(1R)-1-phenylethoxy]phenyl}-N-{3-[(methylsulfonyl)methyl]phenyl}-1,3,5-triazin-2-amine]
21	2000	890	CS(=O)(=O)Cc1cccc(Nc2ncnc(-c3ccc(F)cc3OCc3cccc(F)c3F)n2)c1 [Example 80, 4-{2-[(2,3-Difluorobenzyl)-oxy]-4-fluorophenyl}-N-{3-[(methylsulfonyl)-methyl]phenyl}-1,3,5-triazin-2-amine]
5	1200	1000	CC(C)CCCOc1cc(F)ccc1-c1ncnc(Nc2cccc(CS(C)(=O)=O)c2)n1 [Example 47, 4-{4-Fluoro-2-[(4-methylpentyl)oxy]phenyl}-N-{3-[(methylsulfonyl)-methyl]phenyl}-1,3,5-triazin-2-amine]
37	4700	1500	COc1cnccc1-c1ncnc(Nc2cccc(CS(C)(=O)=O)c2)n1 [Example 8, 4-(3-Methoxypyridin-4-yl)-N-{3-[(methylsulfonyl)methyl]phenyl}-1,3,5-triazin-2-amine]
17	880	1000	COc1cc(F)ccc1-c1ncnc(Nc2cccc(CS(=O)(=O)C3CCCC3)c2)n1 [Example 36, N-{3-[(Cyclopentylsulfonyl)methyl]phenyl}-4-(4-fluoro-2-methoxyphenyl)-1,3,5-triazin-2-amine]
15	710	950	CS(=O)(=O)Cc1cccc(Nc2ncnc(-c3cccc4c3OCC4)n2)c1 [Example 13, 4-(2,3-Dihydro-1-benzofuran-7-yl)-N-{3-[(methylsulfonyl)methyl]phenyl}-1,3,5-triazin-2-amine]
16	1100	1400	CC(Oc1cc(F)ccc1-c1ncnc(Nc2cccc(CS(C)(=O)=O)c2)n1)c1ccccc1 (racemic) [Example 68, rac-4-[4-Fluoro-2-(1-phenylethoxy)phenyl]-N-{3-[(methylsulfonyl)methyl]phenyl}-1,3,5-triazin-2-amine]
29	1300	1000	CS(=O)(=O)Cc1cccc(Nc2ncnc(-c3ccc(F)cc3OCCC3CC3)n2)c1 [Example 48, 4-[2-(2-Cyclopropylethoxy)-4-fluorophenyl]-N-{3-[(methylsulfonyl)methyl]phenyl}-1,3,5-triazin-2-amine]
15	2700	2800	CCCCCCOc1cc(F)ccc1-c1ncnc(Nc2cccc(CS(C)(=O)=O)c2)n1 [Example 46, 4-[4-Fluoro-2-(hexyloxy)phenyl]-N-{3-[(methylsulfonyl)methyl]phenyl}-1,3,5-triazin-2-amine]

SMILES	IC50 (CDK9/CycT1) [nM]	IC50 (CDK2/CycE) [nM]	IC50 [1] [nM]
CC(C)CCOc1cc(F)ccc1-c1ncnc(Nc2cccc(CS(C)(=O)=O)c2)n1 [Example 52, 4-[4-Fluoro-2-(3-methylbutoxy)phenyl]-N-{3-[(methylsulfonyl)methyl]phenyl}-1,3,5-triazin-2-amine]	16	4000	1200
